The values that follow come from patent US11980616B2, “Treating liver disease by selectively eliminating senescent cells” (Buck Institute for Research on Aging, priority 2014, dated 2024).

Series [1] has as its system senescent HCA2 foreskin fibroblast cells. Description: CellTiter-Glo cell viability assay, senescent HCA2. Format: cell-based. The following applies: 72 h; senescent HCA2, 3 days. As to the method: (§1) To determine whether ABT-263 is selectively toxic to senescent cells compared to non-senescent cells, a cell viability assay was used to assess cell survival following treatment with ABT-263. IMR90 cells (human primary lung fibroblasts (IMR90) (IMR-90 (ATCC® CCL-186™, Manassas, Virginia) were seeded in six well plates, and cells were induced to senescence with 10 Gy of ionizing radiation (IR) (Day 0). The media was refreshed every 3 days. The senescent phenotype is allowed to develop for 7 days at which point a cell count was made to determine the baseline number of cells followed by seeding into 96-well plates. On day 8, the senescent cells (irradiated) and the non-senescent cells (the non-radiated cells), were exposed to serial dilutions of ABT-263 for a period of 3 days. ABT-263 concentrations ranged from 0.5 nM to 3 μM. Each condition was seeded in triplicate.
(§2) After three days of treatment (Day 11), cells were assayed for cell survival using the commercially available CellTiter-Glo® (CTG) Luminescent Cell Viability Assay (Promega Corporation, Madison, Wisconsin). The assay determines the number of viable cells in culture based on the quantitation of ATP present which is an indicator of metabolically active cells.
(§3) The methods of Example 7 were repeated in other cell strains. […]

The test system of series [2] is senescent Primary Renal Cortical Cells. Put plainly: CellTiter-Glo cell viability assay, senescent renal epithelial cells. Format: cell-based. The following applies: 72 h, 3 days. As to the method: as §1, §2, §3
On the technique in general: Cellular ATP, detected with luciferase, serves as a proxy for viable cell number.

In series [3] the test system is senescent IMR90 cells. Description: CellTiter-Glo cell viability assay, senescent IMR90. Format: cell-based, human. As to the method: as §1, §2
The experiments performed for assessing the effect of these other Bcl-2 inhibitors were performed essentially as described in Example 7. Cells were exposed to ABT-199 at serial dilution concentrations ranging from 15 nM to 100 μM (FIGS. 26 and 27). Cells were exposed to Obatoclax at concentrations ranging from 1.4 nM to 9 μM (FIG. 28).
IMR90 cells were induced to senescence by irradiation as described in Example 7. The irradiated IMR90 cells and non-senescent IMR90 cells were then exposed to a compound called ML214 that is a Bcl-2A1 specific inhibitor.
The effect of ABT-263 in combination with the Akt inhibitor MK-2206 was tested for selective toxicity of senescent cells compared to non-senescent cells in IMR90 cells. The methods of Example 7 were repeated except that cell cultures were exposed to 10 nM MK-2206 (Selleckem, Cat #S1078) in addition to serial dilutions of ABT-263.

The subject of series [4] is non-senescent HCA2 foreskin fibroblast cells. Description: CellTiter-Glo cell viability assay, non-senescent HCA2. The following applies: 72 h; non-senescent HCA2, 3 days. Format: cell-based. As to the method:
as §1, §2, §3

The subject of series [5] is 3MR or INK-ATTAC mice exposed to cigarette smoke. Description: Chronic cigarette smoke exposure model (COPD). Format: in vivo, mouse. The following applies: after 2 months of cigarette smoke exposure; vs untreated controls. As to the method: In a second animal model for pulmonary diseases (e.g., COPD), mice were exposed to cigarette smoke. The effect of a senolytic agent on the mice exposed to smoke is assessed by senescent cell clearance, lung function, and histopathology.
Six week-old 3MR (n=35) or INK-ATTAC (n=35) mice were chronically exposed to cigarette smoke generated from a Teague TE-10 system, an automatically-controlled cigarette smoking machine that produces a combination of side-stream and mainstream cigarette smoke in a chamber, which is transported to a collecting and mixing chamber where varying amounts of air is mixed with the smoke mixture. The COPD protocol was adapted from the COPD core facility at Johns Hopkins University (at Internet site web.jhu.edu/Biswal/exposure_core/copd.html#Cigarette_Smoke) (Rangasamy et al., 2004, J. Clin. Invest. 114:1248-1259; Yao et al., 2012, J. Clin. Invest. 122:2032-2045). Mice received a total of 6 hours of cigarette smoke exposure per day, 5 days a week for 6 months. Each lighted cigarette (3R4F research cigarettes containing 10.9 mg of total particulate matter (TPM), 9.4 mg of tar, and 0.726 mg of nicotine, and 11.9 mg carbon monoxide per cigarette [University of Kentucky, Lexington, KY]) was puffed for 2 seconds and once every minute for a total of 8 puffs, with the flow rate of 1.05 L/min, to provide a standard puff of 35 cm^3. The smoke machine was adjusted to produce a mixture of side stream smoke (89%) and mainstream smoke (11%) by smoldering 2 cigarettes at one time. The smoke chamber atmosphere was monitored for total suspended particulates (80-120 mg/m^3) and carbon monoxide (350 ppm). Beginning at day 7, (10) INK-ATTAC and (10) 3MR mice were treated with AP20187 (3× per week) or gancyclovir (5 consecutive days of treatment followed by 16 days off drug, repeated until the end of the experiment), respectively. An equal number of mice received the corresponding vehicle. The remaining […] (15 INK-ATTAC and 15 3MR) were evenly split with 5 of each genetically modified strain placed into three different treatment groups. One group (n=10) received Nutlin-3A (25 mg/kg dissolved in 10% DMSO/3% Tween-20 in PBS, treated 14 days consecutively followed by 14 days off drug, repeated until the end of the experiment). […]
After two months of cigarette smoke exposure, lung function was assessed by monitoring oxygen saturation using the MouseSTAT PhysioSuite pulse oximeter (Kent Scientific). […] Mice were monitored for 30 seconds and the average peripheral capillary oxygen saturation (SpO2) measurement over this duration was calculated.

Series [6] concerns non-senescent Primary Renal Cortical Cells. Put plainly: CellTiter-Glo cell viability assay, non-senescent renal epithelial cells. Format: cell-based. As to conditions: 72 h, 3 days. As to the method:
as §1, §2, §3

Series [7] relates to p16-3MR mice treated with paclitaxel. Description: Voluntary exercise (wheel counts) after paclitaxel in p16-3MR mice. Format: in vivo, mouse. The following applies: ABT-263 100 mg/kg i.p. daily 7 days; ganciclovir 25 mg/kg i.p. daily 3 days. As to the method: The capability of a senolytic agent, such as ABT-263, to reduce chemotherapy related side effects, such as fatigue, was examined in p16-3MR transgenic mice. In addition to doxorubicin, paclitaxel also induces cellular senescence when administered to animals. See Example 2 for a description of the p16-3MR transgenic mouse model.
In this experiment, paclitaxel was administered to groups of p16-3mr mice (n=4) three times, every two days. Two days after the third dose of paclitaxel, ganciclovir was administered daily for three days (days 1, 2, and 3) intraperitoneally at 25 mg/kg. ABT-263 (100 mg/kg) was administered intraperitoneally daily for seven days after paclitaxel administration. Two days after the last dose of ABT-263, all groups of animals were housed in metabolic cages (promethion, sable systems international, Las Vegas, NV) to monitor voluntary exercise as determined by wheel counts. Data were collected and analyzed two days later. Clearance of senescent cells by ABT-263 and ganciclovir restored approximately 70% of wheel count reduction caused by chemotherapy treatment.

Series [8] relates to non-senescent IMR90 cells. Description: CellTiter-Glo cell viability assay, non-senescent IMR90. Format: cell-based. The following applies: Homo sapiens, IMR-90, 72 h; non-senescent IMR90, 3 days. As to the method:
as §1, §2
The experiments performed for assessing the effect of these other Bcl-2 inhibitors were performed essentially as described in Example 7. […]

Series [9] deals with non-senescent IMR90 cells. Description: Cell counting assay, non-senescent IMR90. Format: cell-based, human. The following applies: 3 μM, 24 hour exposure. As to the method: (§4) To determine whether ABT-263 is selectively toxic to senescent cells compared to non-senescent cells, a cell counting assay was used to determine cell survival following treatment with ABT-263. […] Each condition was seeded in three wells and counted independently. Cells were counted after a 24 hour exposure to ABT-263 (or control culture).

Series [10] has as its system senescent IMR90 cells (IMR90 Sen(IR)). Description: Pan-caspase inhibitor (Q-VD-OPh) apoptosis assay in IMR90 cells. Format: cell-based, human.
Protocol: Lung fibroblast cell line IMR90 (human primary lung fibroblasts, ATCC® CCL-186™, Manassas, Virginia) were seeded in six-well plates and induced to senesce with 10 Gy of ionizing radiation (IR) as described in Example 12. After senescence was established, cells were re-seeded into 96 well plates. […] At the end of the assay time period, cells were counted. Each condition was seeded in three plate wells and counted independently. […] Cell survival was determined using the commercially available CellTiter-Glo® Luminescent Cell Viability Assay (Promega Corporation, Madison, Wisconsin). The assay determines the number of viable cells in culture based on the quantitation of ATP present which is an indicator of metabolically active cells.
The test system of series [11] is senescent IMR90 cells (Sen(IR) IMR90). Put plainly: Cell counting assay, senescent IMR90. Format: cell-based, human. As to conditions: 3 μM, 24 hour exposure. As to the method:
as §4

By IC50 is commonly meant the midpoint of a concentration-inhibition curve. Consider `CC1(C)CCC(c2ccc(Cl)cc2)=C(CN2CCN(c3ccc(C(=O)NS(=O)(=O)c4ccc(N[C@H](CCN5CCOCC5)CSc5ccccc5)c(S(=O)(=O)C(F)(F)F)c4)cc3)CC2)C1` [ABT-263, 4-[4-[[2-(4-chlorophenyl)-5,5-dimethylcyclohexen-1-yl]methyl]piperazin-1-yl]-N-[4-[[(2R)-4-morpholin-4-yl-1-phenylsulfanylbutan-2-yl]amino]-3-(trifluoromethylsulfonyl)phenyl]sulfonylbenzamide], for which the IC50 in [1] was 410 nM; in series [2], 25 nM; in series [3] (Homo sapiens, IMR-90, 72 h, senescent IMR90, 3 days) it was 140 nM; in [4], more than 3000 nM; in series [6] it was 430 nM; in series [8], 2400 nM. In addition, the “In vitro theoretical therapeutic index” value in series [3] (IMR90, non-senescent vs senescent IC50) was 17. Further, in series [5], the SpO2 levels result is listed as “statistically significant increases”. Also, the “Restoration of wheel count reduction caused by chemotherapy” value in series [7] is recorded as “approximately 70%”. Besides, the “Percentage of survival of cells after 24 hours” value in series [9] was “absence of toxicity”. For the same compound, in series [10] (0.33 or 1 μM, 3 days, Q-VD-OPh 20 μM), the “Percent of surviving senescent cells in the presence of the pan-caspase inhibitor” value is on record as “increased”. Moreover, in series [10] (IMR90, 3 days), the “Selective killing of senescent cells” value is recorded as “selectively kills senescent cells”. Moreover, in series [11], the “Cell counts relative to counts before treatment” value is given as 28%.
